Test: Storage stability of [^125I] 5 in the refrigerator
Format: physicochemical
Details: 4 °C, storage time over which compound found stable

O=CCCCNC(=O)c1ccc([125I])cc1 [[^125I] 5]
stable in the refrigerator (no hydrolysis): more than 6 months

Source: article PMC6044831 (ACS Omega, 2018)
